Where two headings read alike, the source gives them in different places.
Columns and labels:
[1] = Clinical pharmacokinetic data converted to in vitro concentrations; settings: human, in vivo
From the text: Given the different potencies of the JAK inhibitors and different pharmacokinetic properties for each drug, it was sought to test each drug at a relevant range of physiological concentrations based on clinical dosing and reported pharmacokinetic data from repeat dose studies. Reported Cmax values in patient sera were converted to in vitro concentrations and adjusted for reported plasma protein binding.

[2] = system: NALM6.GFP.LUC.CD19 target cells; experiment: Serial killing assay; format: cell-based, human
Procedure: CD19 CAR-T cells were thawed in RPMI media supplemented with HEPES, Penicillin/Streptomycin/L-Glutamine and 10% FBS and rested overnight. The following day, drugs were serially diluted and prepared in 96-well plates. Rested T cells were counted and normalized so that 25,000 or 8,333 T cells were plated with 25,000 NALM6.GFP.LUC.CD19 target cells (1:1 or 1:3 Effector:Target ratio) in the prepared 96-well plates. At 16 hour post-incubation and every 3-4 days, T cell killing of targets was measured via luciferase detection. D-luciferin substrate was added to the co-culture wells at a final concentration of 0.14 mg/mL and plates were incubated at 37° C. in the dark for 10 minutes. Luminescent signal was read immediately after in a VarioSkan™ LUX microplate reader. T cell-mediated cytotoxicity was calculated as follows: % Cytotoxicity=[1−luciferase signal of (sample of interest/target alone control)]*100. Afterwards, co-cultures were stained with LIVE/DEAD and antibodies against CD4, CD8 and KIP-1 and then washed. Cells were then analyzed and quantified via the Attune NxT flow cytometer. T cells were then repeatedly stimulated with fresh 25,000 target cells, and this process was repeated every 3-4 days.

[3] = cited from earlier work
[4] = system: CAR-T cells; experiment: CAR-T cell expansion assay (KIP-1 or CD3/CD28 stimulation)
Procedure: 96-well plates were coated with 100 μl of KIP-1 antibody per well at 1 μg/ml in PBS and plates were incubated at 4° C. overnight. CAR-T cells were thawed and were rested in ImmunoCult expansion medium and incubated overnight at 37° C. Cells were then counted and resuspended at 2 million cells/ml and seed at 200,000 cells per well in 100 μl of expansion medium with 10 ng/ml recombinant IL2. For groups treated with KIP-1, 100 μl of expansion medium were added with 2× final drug dilutions. For CD3/CD28 treated groups, 100 μl of expansion media were added with 2× final drug dilutions containing 25 μl/ml of CD3/CD28 T cell activator from StemCell Technologies. Cells were then incubated at 37° C. After 4 days, cells were counted and diluted 1 to 8-fold in expansion media and then transferred to a 24-well plate. Cell counts were repeated at day 7 and transferred to T25 flasks. On day 11, all cells were harvested and counted.

[5] = system: CD19 CAR T cells; experiment: CAR T cell cytokine production (Luminex) under CD19 K562, KIP-1 or CD2/3/28 stimulation
[6] = E:T ratio 1:3, all doses tested

Nc1nc2cccc(-c3ccc(CN4CCS(=O)(=O)CC4)cc3)n2n1 [GS-829845]
clinically relevant dose level (in vitro concentration) [1]: ~4 µM
T-cell counts ([2]; E:T ratio 1:1): increased T-cell counts in a dose-dependent manner
serial killing ([2]; E:T ratio 1:1): enhanced serial killing
T-cell counts [2, 6]: no negative impacts were observed
serial killing [2, 6]: no negative impacts
Cmax ([3]; clinical dosing, patient sera, repeat dose studies): 3540 ng/mL
Protein binding ([3]; plasma protein binding, reported): ~58%
% viability ([4]; CD3/CD28, dose 1000 nM, day 0): 75%
% viability ([4]; CD3/CD28, dose 1000 nM, day 4): 55.6%
% viability ([4]; CD3/CD28, dose 1000 nM, day 8): 76.2%
% viability ([4]; CD3/CD28, dose 1000 nM, day 12): 88.9%
% viability ([4]; CD3/CD28, dose 5000 nM, day 0): 75%
% viability ([4]; CD3/CD28, dose 5000 nM, day 4): 56.5%
% viability ([4]; CD3/CD28, dose 5000 nM, day 8): 75.6%
% viability ([4]; CD3/CD28, dose 5000 nM, day 12): 88.8%
% viability ([4]; KIP-1, dose 1000 nM, day 0): 75%
% viability ([4]; KIP-1, dose 1000 nM, day 4): 48.4%
% viability ([4]; KIP-1, dose 1000 nM, day 8): 63%
% viability ([4]; KIP-1, dose 1000 nM, day 12): 82.5%
% viability ([4]; KIP-1, dose 5000 nM, day 0): 75%
% viability ([4]; KIP-1, dose 5000 nM, day 4): 60%
% viability ([4]; KIP-1, dose 5000 nM, day 8): 87%
% viability ([4]; KIP-1, dose 5000 nM, day 12): 81.1%
effect on T cell expansion ([4]; at the doses tested (Table 40)): little to no effect
suppression of cytokine production from CAR T cells (breadth and magnitude) [5]: weaker in activity compared to filgotinib and other JAK inhibitors
Suppression of cytokine production, IL-6 (IC50) ([5]; CD3/CD28 stimulation, 72 h): Suppress
Suppression of cytokine production, MCP-1 (IC50) ([5]; CD3/CD28 stimulation, 72 h): Suppress
Suppression of cytokine production, TNFa (IC50) ([5]; CD3/CD28 stimulation, 72 h): Suppress
Suppression of cytokine production, IL-6 (IC50) ([5]; K562-CD19 stimulation, 72 h): Suppress
Suppression of cytokine production, MCP-1 (IC50) ([5]; K562-CD19 stimulation, 72 h): Suppress
Suppression of cytokine production, MIG (IC50) ([5]; K562-CD19 stimulation, 72 h): Suppress
Suppression of cytokine production, TNFa (IC50) ([5]; K562-CD19 stimulation, 72 h): Suppress
Suppression of cytokine production, IL-6 (IC50) ([5]; KIP-1 stimulation, 72 h): Suppress
Suppression of cytokine production, MCP-1 (IC50) ([5]; KIP-1 stimulation, 72 h): Suppress
Suppression of cytokine production, TNFa (IC50) ([5]; KIP-1 stimulation, 72 h): Suppress
IC50 ([5]; read-out: Suppression of cytokine production, GMCSF (IC50), CD3/CD28 stimulation, 72 h): > 10 µM
IC50 ([5]; read-out: Suppression of cytokine production, GMCSF (IC50), K562-CD19 stimulation, 72 h): > 10 µM
IC50 ([5]; read-out: Suppression of cytokine production, GMCSF (IC50), KIP-1 stimulation, 72 h): > 10 µM
IC50 ([5]; read-out: Suppression of cytokine production, GzB (IC50), CD3/CD28 stimulation, 72 h): > 10 µM
IC50 ([5]; read-out: Suppression of cytokine production, GzB (IC50), K562-CD19 stimulation, 72 h): > 10 µM
IC50 ([5]; read-out: Suppression of cytokine production, GzB (IC50), KIP-1 stimulation, 72 h): > 10 µM
IC50 ([5]; read-out: Suppression of cytokine production, IFNg (IC50), CD3/CD28 stimulation, 72 h): > 10 µM
IC50 ([5]; read-out: Suppression of cytokine production, IFNg (IC50), K562-CD19 stimulation, 72 h): > 10 µM
IC50 ([5]; read-out: Suppression of cytokine production, IFNg (IC50), KIP-1 stimulation, 72 h): > 10 µM
IC50 ([5]; read-out: Suppression of cytokine production, IL-2Ra (IC50), CD3/CD28 stimulation, 72 h): 4.74 µM
IC50 ([5]; read-out: Suppression of cytokine production, IL-2Ra (IC50), K562-CD19 stimulation, 72 h): > 10 µM
IC50 ([5]; read-out: Suppression of cytokine production, IL-2Ra (IC50), KIP-1 stimulation, 72 h): > 10 µM
IC50 ([5]; read-out: Suppression of cytokine production, IL-8 (IC50), CD3/CD28 stimulation, 72 h): > 10 µM
IC50 ([5]; read-out: Suppression of cytokine production, IL-8 (IC50), K562-CD19 stimulation, 72 h): > 10 µM
IC50 ([5]; read-out: Suppression of cytokine production, IL-8 (IC50), KIP-1 stimulation, 72 h): > 10 µM
IC50 ([5]; read-out: Suppression of cytokine production, IL-10 (IC50), K562-CD19 stimulation, 72 h): 4.01 µM
IC50 ([5]; read-out: Suppression of cytokine production, IL-10 (IC50), KIP-1 stimulation, 72 h): 3.93 µM
IC50 ([5]; read-out: Suppression of cytokine production, MIG (IC50), CD3/CD28 stimulation, 72 h): > 10 µM
IC50 ([5]; read-out: Suppression of cytokine production, MIG (IC50), KIP-1 stimulation, 72 h): > 10 µM
IC50 ([5]; read-out: Suppression of cytokine production, MIP-1a (IC50), CD3/CD28 stimulation, 72 h): > 10 µM
IC50 ([5]; read-out: Suppression of cytokine production, MIP-1a (IC50), K562-CD19 stimulation, 72 h): > 10 µM
IC50 ([5]; read-out: Suppression of cytokine production, MIP-1a (IC50), KIP-1 stimulation, 72 h): > 10 µM
IC50 ([5]; read-out: Suppression of cytokine production, MIP-1b (IC50), CD3/CD28 stimulation, 72 h): > 10 µM
IC50 ([5]; read-out: Suppression of cytokine production, MIP-1b (IC50), K562-CD19 stimulation, 72 h): > 10 µM
IC50 ([5]; read-out: Suppression of cytokine production, MIP-1b (IC50), KIP-1 stimulation, 72 h): > 10 µM
IC50 ([5]; read-out: Suppression of cytokine production, Perforin (IC50), CD3/CD28 stimulation, 72 h): > 10 µM
IC50 ([5]; read-out: Suppression of cytokine production, Perforin (IC50), K562-CD19 stimulation, 72 h): > 10 µM
IC50 ([5]; read-out: Suppression of cytokine production, Perforin (IC50), KIP-1 stimulation, 72 h): > 10 µM

From patent publication US12252701B2, “Chimeric antigen receptor T cell therapy” (KITE PHARMA, INC., priority 2020, dated 2025)
